Data set [1] can be described thus: Displacement of [3H]vinblastine from P-gp in human KBV1 cell membrane vesicles. The class given is cell membranes. For orientation: In a radioligand displacement assay an active substance lowers the binding of a labelled ligand.
For data set [2], the system named is KB-V1. Kind of data set: Potentiation of vinblastine-induced antitumor activity against human KBV1 cells xenografted in Ncr nude mouse assessed as growth inhibition at 0.13 mmol/kg by hallow fiber assay. The note with it: read-out: GI. The class given is functional. Background: In xenograft studies the graft and the host belong to different species.
Data set [3] in a line: Potentiation of vinblastine-induced antitumor activity against human KB-8-5 cells xenografted in Ncr nude mouse assessed as growth inhibition at 0.13 mmol/kg by hallow fiber assay. Conditions: read-out: GI. The class given is functional.
Data set [4] has as its system KB-V1. The experiment in a line: Potentiation of vinblastine-induced antitumor activity against human KBV1 cells xenografted in Ncr nude mouse assessed as growth inhibition at 0.136 mmol/kg by hallow fiber assay. The class given is functional. Conditions: read-out: GI.
Data set [5] in a line: Inhibition of P-gp in human MCF7/DX1 cells assessed as […] Rh123 accumulation after 30 mins by FACS analysis. It counts as cell-based. Conditions: MCF7/DX1, 0.5 h. (In general: Flow cytometry measures light scatter and fluorescence of single cells or particles in a stream.)
Data set [6] in a line: Inhibition of P-gp in human MCF7/DX1 cells assessed as […] [3H]paclitaxel accumulation after 40 mins by scintillation counting method. It counts as cell-based.
Data set [7] in a line: Cytotoxicity against human KB1 cells. The class given is functional. Conditions: read-out: ED50 (the source's name).
A short description of data set [8]: Inhibition of P-gp ATPase activity in rat AS30-D/COL10 cell plasma membrane vesicles.
The test system of another data set is P388. The experiment in a line: Potentiation of doxorubicin-induced antitumor activity against mouse P388/DOX25 cells implanted in mouse assessed as increase in mouse survival at 1.6 mg/kg, ip. It counts as functional.
The nature of data set [9]: Inhibition of P-gp in rat AS30-D/COL10 cell plasma membrane vesicles assessed as reduction in [3H]VBL transport.
Data set [10] is filed under the species Homo sapiens. Kind of data set: Inhibition of P-gp in human A549/DDP cells assessed as potentiation of doxorubicin-induced cytotoxicity by measuring fold reduction in doxorubicin IC50 at 5 uM. It counts as cell-based.
The species entered for data set [11] is Homo sapiens. Kind of data set: Inhibition of P-gp in human K562/DOX cells assessed as potentiation of doxorubicin-induced cytotoxicity by measuring fold reduction in doxorubicin IC50 at 5 uM. It counts as cell-based.
Data set [12] is filed under the species Homo sapiens. The experiment in a line: Inhibition of P-gp in human A549/DDP cells assessed as potentiation of […]-induced cytotoxicity by measuring fold reduction in doxorubicin IC50 at 5 uM. It counts as cell-based.
For another data set, the species on record is Mus musculus. Kind of data set: Inhibition of P-gp in mouse P388/DOX cells assessed as potentiation of doxorubicin-induced cytotoxicity by measuring fold reduction in doxorubicin IC50. The class given is cell-based.
The species entered for data set [13] is Homo sapiens. Kind of data set: Inhibition of P-gp in human HCT116/VM46 cells assessed as potentiation of vinblastine-induced cytotoxicity by measuring fold reduction in vinblastine IC50. It counts as cell-based.
For data set [14], the species on record is Homo sapiens. Kind of data set: Inhibition of P-gp in human CCRF-CEM/VLB100 cells assessed as potentiation of vinblastine-induced cytotoxicity by measuring fold reduction in vinblastine IC50.
The species entered for data set [15] is Homo sapiens. The experiment in a line: Inhibition of P-gp in human HCT116/VM46 cells assessed as potentiation of doxorubicin-induced cytotoxicity by measuring fold reduction in doxorubicin IC50. The class given is cell-based.
The species named for data set [16] is Homo sapiens. The experiment in a line: Inhibition of P-gp in human MCF7/ADR cells assessed as potentiation of doxorubicin-induced cytotoxicity by measuring fold reduction in doxorubicin IC50 at 50 uM after 0.5 to 4 hrs by fluorometric method. The class given is cell-based.
In data set [17] the target is Multidrug resistance-associated protein 1 (Homo sapiens, UniProt P33527). Kind of data set: Inhibition of MRP1 in human MCF7/ADR cells assessed as potentiation of mitoxantrone-induced cytotoxicity by measuring fold reduction in mitoxantrone IC50 at 50 uM after 0.5 to 4 hrs by fluorometric method. The class given is cell-based.
The species entered for data set [18] is Homo sapiens. Kind of data set: Inhibition of P-gp in human MCF7/DOX cells assessed as potentiation of doxorubicin-induced cytotoxicity by measuring fold reduction in doxorubicin IC50 at 5 uM. It counts as cell-based.
Data set [19] addresses T1, ATP-dependent translocase ABCB1 (Homo sapiens, UniProt P08183). The experiment in a line: Inhibition of [125I]IAAP labeling to human MDR1 expressed in baculovirus infected insect cell membranes by electrophoresis method.
Data set [20] concerns the target T1, ATP-dependent translocase ABCB1. Kind of data set: Inhibition of human MDR1 ATPase activity expressed in baculovirus infected insect cells preincubated for 30 mins followed by ATP addition measured after 20 mins by colorimetric method.
The target is the same in data set [21]. Kind of data set: Displacement of 8-azido[alpha-32P]ATP from human MDR1 expressed in baculovirus infected insect cell membranes by phosphorimaging method.

Eight compounds from ChEMBL document CHEMBL4190243, “Natural alkaloids as P-gp inhibitors for multidrug resistance reversal in cancer” (Eur J Med Chem, 2017) can be followed below.

T1 sequence (P08183 whole entry): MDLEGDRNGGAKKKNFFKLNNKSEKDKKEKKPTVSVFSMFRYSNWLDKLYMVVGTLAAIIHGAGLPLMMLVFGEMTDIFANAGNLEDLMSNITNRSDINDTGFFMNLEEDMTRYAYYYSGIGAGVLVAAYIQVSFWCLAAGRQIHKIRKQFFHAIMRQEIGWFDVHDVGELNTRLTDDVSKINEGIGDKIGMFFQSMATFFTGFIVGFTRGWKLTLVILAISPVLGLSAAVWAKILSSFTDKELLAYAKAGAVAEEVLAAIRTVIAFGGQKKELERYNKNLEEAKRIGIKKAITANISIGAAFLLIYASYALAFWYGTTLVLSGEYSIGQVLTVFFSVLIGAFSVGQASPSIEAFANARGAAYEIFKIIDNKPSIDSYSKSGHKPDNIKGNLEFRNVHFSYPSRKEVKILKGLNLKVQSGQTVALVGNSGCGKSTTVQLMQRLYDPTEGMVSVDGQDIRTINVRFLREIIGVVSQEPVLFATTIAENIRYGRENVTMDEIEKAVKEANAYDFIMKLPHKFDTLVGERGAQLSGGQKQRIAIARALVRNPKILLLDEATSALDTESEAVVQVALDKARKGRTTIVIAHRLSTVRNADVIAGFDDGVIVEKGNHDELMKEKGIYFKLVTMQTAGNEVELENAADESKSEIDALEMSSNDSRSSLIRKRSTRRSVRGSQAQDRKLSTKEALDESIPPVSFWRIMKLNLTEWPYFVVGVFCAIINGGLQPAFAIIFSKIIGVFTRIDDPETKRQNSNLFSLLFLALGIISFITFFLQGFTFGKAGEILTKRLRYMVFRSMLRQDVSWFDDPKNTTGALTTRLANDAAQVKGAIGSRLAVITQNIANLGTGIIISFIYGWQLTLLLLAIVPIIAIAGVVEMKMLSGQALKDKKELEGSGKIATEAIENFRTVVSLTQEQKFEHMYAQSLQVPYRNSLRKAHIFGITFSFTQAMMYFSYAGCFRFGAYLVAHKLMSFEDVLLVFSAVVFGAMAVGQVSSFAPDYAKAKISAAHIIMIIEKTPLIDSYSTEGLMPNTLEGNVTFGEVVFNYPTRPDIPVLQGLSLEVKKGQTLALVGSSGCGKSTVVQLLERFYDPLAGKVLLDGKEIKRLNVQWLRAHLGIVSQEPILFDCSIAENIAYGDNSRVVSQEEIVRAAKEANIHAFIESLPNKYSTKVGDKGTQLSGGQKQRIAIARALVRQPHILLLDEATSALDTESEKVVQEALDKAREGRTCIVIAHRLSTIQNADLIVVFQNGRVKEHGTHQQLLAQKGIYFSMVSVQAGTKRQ
Chain of Multidrug resistance-associated protein 1 (P33527 whole entry): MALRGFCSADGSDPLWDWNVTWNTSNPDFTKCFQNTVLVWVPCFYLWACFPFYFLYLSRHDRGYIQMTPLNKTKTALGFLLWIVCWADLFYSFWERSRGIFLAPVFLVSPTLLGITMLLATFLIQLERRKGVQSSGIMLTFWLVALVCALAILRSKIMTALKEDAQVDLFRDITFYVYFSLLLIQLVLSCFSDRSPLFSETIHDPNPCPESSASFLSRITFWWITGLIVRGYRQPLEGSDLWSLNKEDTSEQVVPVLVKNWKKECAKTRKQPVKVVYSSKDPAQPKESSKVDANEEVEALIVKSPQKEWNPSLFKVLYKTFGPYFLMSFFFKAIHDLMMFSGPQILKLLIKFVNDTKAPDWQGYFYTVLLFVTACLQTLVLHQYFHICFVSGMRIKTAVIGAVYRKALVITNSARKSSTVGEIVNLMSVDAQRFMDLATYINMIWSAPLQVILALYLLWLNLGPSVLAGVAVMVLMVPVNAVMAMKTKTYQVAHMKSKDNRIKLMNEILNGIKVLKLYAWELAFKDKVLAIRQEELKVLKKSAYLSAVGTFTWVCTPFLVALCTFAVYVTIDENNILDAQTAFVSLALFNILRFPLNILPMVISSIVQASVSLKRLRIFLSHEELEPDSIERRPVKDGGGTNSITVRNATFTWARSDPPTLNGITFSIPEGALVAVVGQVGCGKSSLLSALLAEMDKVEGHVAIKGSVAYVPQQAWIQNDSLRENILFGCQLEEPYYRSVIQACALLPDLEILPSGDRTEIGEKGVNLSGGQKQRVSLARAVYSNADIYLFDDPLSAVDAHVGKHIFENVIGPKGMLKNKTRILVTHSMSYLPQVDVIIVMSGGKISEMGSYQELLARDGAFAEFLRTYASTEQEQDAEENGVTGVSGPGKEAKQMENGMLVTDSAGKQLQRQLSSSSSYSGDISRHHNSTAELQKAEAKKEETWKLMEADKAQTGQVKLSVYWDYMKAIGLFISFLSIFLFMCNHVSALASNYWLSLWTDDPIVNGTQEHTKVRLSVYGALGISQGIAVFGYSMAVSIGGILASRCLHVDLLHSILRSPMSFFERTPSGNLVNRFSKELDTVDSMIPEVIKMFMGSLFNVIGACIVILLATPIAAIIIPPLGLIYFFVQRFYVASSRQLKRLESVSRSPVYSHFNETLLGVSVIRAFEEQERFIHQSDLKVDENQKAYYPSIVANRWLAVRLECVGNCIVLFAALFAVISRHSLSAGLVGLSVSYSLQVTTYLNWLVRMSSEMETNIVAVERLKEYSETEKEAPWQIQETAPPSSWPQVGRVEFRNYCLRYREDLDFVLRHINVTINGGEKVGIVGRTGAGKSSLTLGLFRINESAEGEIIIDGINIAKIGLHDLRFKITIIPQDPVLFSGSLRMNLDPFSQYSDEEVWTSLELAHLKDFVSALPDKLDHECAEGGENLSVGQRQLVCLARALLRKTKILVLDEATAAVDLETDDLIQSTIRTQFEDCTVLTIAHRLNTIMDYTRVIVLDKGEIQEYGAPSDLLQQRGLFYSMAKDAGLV

Broadly, the Ki is the dissociation constant of the complex between target and ligand, obtained from inhibition or displacement. Higher therefore signals lower affinity. `COc1cc(/C=C/C(=O)OC2C(O)C3CC(OC(=O)c4cc(OC)c(OC)c(OC)c4)CC2N3C)cc(OC)c1OC` (stereo not drawn): affinity in [1] was put at a Ki of 7300 nM. Also, the inhibition in vivo at 130 µmol/kg (in the data set with KB-V1 [2]; in [3]) was no more than 75% in each case. For the same compound, the inhibition in vivo at 136 µmol/kg with KB-V1 [4] is no more than 77.7%.
In general, IC50 refers to the concentration needed to halve the response being measured. As to `C=C[C@H]1CN2CC[C@H]1C[C@@H]2[C@@H](OC(=O)CCCCCCCC(=O)O[C@@H](c1ccnc2ccc(OC)cc12)[C@H]1C[C@@H]2CCN1C[C@@H]2C=C)c1ccnc2ccc(OC)cc12`, the IC50 in [5] was determined as 1700 nM; in data set [6], 2000 nM.
Consider `CC(/C=C/C=C\C=C\C=C(/C)C(=O)N[C@@H](C)CO)=C\[C@@H](C)[C@@H](O)/C(C)=C/[C@@H](C)CCc1ccccc1`, for which the EC50 in [7] came out at 0.03 nM.
`C=C[C@]1(C)C[C@@H](OC(=O)CSCCN(CC)CC)[C@]2(C)[C@H](C)CC[C@]3(CCC(=O)[C@H]32)[C@@H](C)[C@@H]1O` [TIAMULIN]: the IC50 in data set [8] was determined as 540 nM; in [9], 6200 nM. Moreover, the survival at 1.6 mg/kg in the data set with P388 stood at 29%.
Turning to `C=CC(C)(C)[C@]12c3ccccc3N(C(C)=O)[C@H]1N1C(=O)[C@@H](C)n3c(nc4ccccc4c3=O)[C@@H]1C2O` (stereo partly drawn), the fold change (FC) in the data set listed under Homo sapiens [10] was found to be 8; in the data set listed under Homo sapiens [11] it was 5; in the data set filed under Homo sapiens [12] it was 8.
As for `COc1ccc(CCn2cc(-c3ccc(OC)c(OC)c3)c3c4cc(OC)c(OC)cc4oc(=O)c32)cc1OC`, the fold change (FC) in the data set filed under Mus musculus came to 350; in the data set listed under Homo sapiens [13], 35; in the data set listed under Homo sapiens [14], 6.2; in the data set listed under Homo sapiens [15], 350.
Consider `COc1cc2c(cc1OC)-c1c(OC)c(OC)cc3c1[C@H](C2)N(C)CC3` [GLAUCINE], for which the fold change (FC) in the data set listed under Homo sapiens [16] worked out at 7; in data set [17], 22; in the data set filed under Homo sapiens [18], 7.
`Nc1ncnc2c1ncn2[C@@H]1O[C@H](COC(=O)c2ccc(S(=O)(=O)F)cc2)[C@@H](O)[C@H]1O`: the IC50 in data set [19] worked out at 170 nM; in data set [20], 210 nM; in data set [21] it was 680 nM.
